Reference: the supplement of paper PMC10307832

What was measured:
Assay in all cases: relative viability (nuclei count vs DMSO), 5 days (fraction); higher = more cells survive
Tipifarnib + Decitabine = compound: Cn1cncc1[C@@](N)(c1ccc(Cl)cc1)c1ccc2c(c1)c(-c1cccc(Cl)c1)cc(=O)n2C [Tipifarnib] + Nc1ncn([C@H]2C[C@H](O)[C@@H](CO)O2)c(=O)n1 [Decitabine] (partner 2 µM)
In short: (§1)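 Relative viability is defined as nuclei in treated wells over nuclei in vehicle wells. Duplicate plates were run and medians reported. Lung cancer cell lines in 1536-well plates were dosed by pin tool one day after seeding, with one drug or with a fixed anchor-drug dose plus five library-drug doses (not always all listed) in √10 steps, and nuclei were counted after 5 days.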

Tipifarnib + Bortezomib = compound: Cn1cncc1[C@@](N)(c1ccc(Cl)cc1)c1ccc2c(c1)c(-c1cccc(Cl)c1)cc(=O)n2C [Tipifarnib] + CC(C)C[C@H](NC(=O)[C@H](Cc1ccccc1)NC(=O)c1cnccn1)B(O)O [Bortezomib] (partner 0.002 µM)
In short: as §1

Tipifarnib + Tozasertib = compound: Cn1cncc1[C@@](N)(c1ccc(Cl)cc1)c1ccc2c(c1)c(-c1cccc(Cl)c1)cc(=O)n2C [Tipifarnib] + Cc1cc(Nc2cc(N3CCN(C)CC3)nc(Sc3ccc(NC(=O)C4CC4)cc3)n2)n[nH]1 [Tozasertib] (partner 0.1 µM)
In short: as §1

Tipifarnib + AZD7762 = compound: Cn1cncc1[C@@](N)(c1ccc(Cl)cc1)c1ccc2c(c1)c(-c1cccc(Cl)c1)cc(=O)n2C [Tipifarnib] + NC(=O)Nc1cc(-c2cccc(F)c2)sc1C(=O)N[C@H]1CCCNC1 [AZD7762] (partner 0.2 µM)
In short: as §1

| Cell Line | relative viability (Tipifarnib + Decitabine; first compound 0.01 µM) | relative viability (Tipifarnib + Decitabine; first compound 0.03162 µM) | relative viability (Tipifarnib + Decitabine; first compound 0.1 µM) | relative viability (Tipifarnib + Decitabine; first compound 0.3162 µM) | relative viability (Tipifarnib + Decitabine; first compound 1 µM) | relative viability (Tipifarnib + Bortezomib; first compound 0.01 µM) | relative viability (Tipifarnib + Bortezomib; first compound 0.03162 µM) | relative viability (Tipifarnib + Bortezomib; first compound 0.1 µM) | relative viability (Tipifarnib + Bortezomib; first compound 0.3162 µM) | relative viability (Tipifarnib + Bortezomib; first compound 1 µM) | relative viability (Tipifarnib + Tozasertib; first compound 0.01 µM) | relative viability (Tipifarnib + Tozasertib; first compound 0.03162 µM) | relative viability (Tipifarnib + Tozasertib; first compound 0.1 µM) | relative viability (Tipifarnib + Tozasertib; first compound 0.3162 µM) | relative viability (Tipifarnib + Tozasertib; first compound 1 µM) | relative viability (Tipifarnib + AZD7762; first compound 0.01 µM) | relative viability (Tipifarnib + AZD7762; first compound 0.03162 µM) | relative viability (Tipifarnib + AZD7762; first compound 0.1 µM) | relative viability (Tipifarnib + AZD7762; first compound 0.3162 µM) | relative viability (Tipifarnib + AZD7762; first compound 1 µM) |
| --- | --- | --- | --- | --- | --- | --- | --- | --- | --- | --- | --- | --- | --- | --- | --- | --- | --- | --- | --- | --- |
| LCLC-97TM1 | 0.242 | 0.242 | 0.308 | 0.225 | 0.205 | 0.317 | 0.582 | 0.404 | 0.33 | 0.117 | 0.154 | 0.18 | 0.186 | 0.148 | 0.215 | 0.179 | 0.225 | 0.216 | 0.17 | 0.0822 |
| HARA | 0.758 | 0.593 | 0.515 | 0.625 | 0.435 | 1.16 | 0.938 | 1.26 | 1.12 | 0.55 | 0.123 | 0.0922 | 0.102 | 0.0898 | 0.0758 | 0.239 | 0.426 | 0.283 | 0.297 | 0.166 |
| HCC-78 | 0.786 | 0.756 | 0.719 | 0.664 | 0.514 | 0.606 | 0.45 | 0.46 | 0.469 | 0.462 | 0.403 | 0.371 | 0.388 | 0.32 | 0.297 | 0.772 | 0.811 | 0.483 | 0.511 | 0.415 |
| NCI-H1666 | 0.698 | 0.739 | 0.768 | 0.598 | 0.571 | 0.801 | 0.793 | 0.671 | 0.614 | 0.442 | 0.593 | 0.507 | 0.526 | 0.447 | 0.517 | 0.892 | 0.807 | 0.794 | 0.661 | 0.554 |
| NCI-H2347 | 0.593 | 0.553 | 0.581 | 0.527 | 0.521 | 0.897 | 0.469 | 0.751 | 0.698 | 0.738 | 0.516 | 0.402 | 0.431 | 0.382 | 0.461 | 0.834 | 0.721 | 0.665 | 0.505 | 0.61 |
| NCI-H838 | 0.466 | 0.452 | 0.46 | 0.413 | 0.38 | 0.713 | 0.733 | 0.589 | 0.439 | 0.41 | 0.254 | 0.286 | 0.248 | 0.214 | 0.252 | 1.01 | 0.965 | 0.905 | 0.836 | 0.851 |
| NCI-H2023 | 0.219 | 0.2 | 0.215 | 0.176 | 0.165 | 1.27 | 0.757 | 0.45 | 0.453 | 0.156 | 0.251 | 0.289 | 0.217 | 0.182 | 0.215 |  |  |  |  |  |
| 201T | 0.875 | 0.841 | 0.88 | 0.783 | 0.816 | 1.12 | 1.14 | 1.06 | 1.05 | 0.788 | 1.02 | 0.945 | 0.864 | 0.705 | 0.767 | 0.679 | 0.628 | 0.573 | 0.546 | 0.449 |
| NCI-H1915 | 0.272 | 0.245 | 0.284 | 0.232 | 0.257 | 0.844 | 0.466 | 0.54 | 0.418 | 0.286 | 0.358 | 0.326 | 0.293 | 0.26 | 0.287 | 0.643 | 0.583 | 0.398 | 0.332 | 0.319 |
| NCI-H2009 | 0.382 | 0.378 | 0.362 | 0.357 | 0.323 | 1.11 | 0.775 | 0.678 | 0.642 | 0.373 | 0.605 | 0.574 | 0.421 | 0.341 | 0.419 |  |  |  |  |  |
| BEN | 0.748 | 0.759 | 0.66 | 0.699 | 0.503 | 0.81 | 0.81 | 0.628 | 0.652 | 0.604 | 0.576 | 0.398 | 0.491 | 0.418 | 0.504 | 0.738 | 0.659 | 0.629 | 0.663 | 0.528 |
| PC-14 | 0.223 | 0.183 | 0.221 | 0.189 | 0.145 | 1 | 0.873 | 0.555 | 0.453 | 0.464 | 0.397 | 0.496 | 0.172 | 0.165 | 0.155 | 0.322 | 0.228 | 0.227 | 0.136 | 0.16 |
| SK-MES-1 | 0.465 | 0.336 | 0.35 | 0.421 | 0.33 |  |  |  |  |  | 0.834 | 0.76 | 0.63 | 0.566 | 0.572 |  |  |  |  |  |
| NCI-H727 | 0.862 | 0.811 | 0.855 | 0.765 | 0.851 | 0.893 | 0.802 | 0.856 | 0.656 | 0.607 | 0.809 | 0.598 | 0.624 | 0.608 | 0.444 | 0.613 | 0.608 | 0.519 | 0.504 | 0.571 |
| NCI-H1355 | 0.372 | 0.397 | 0.328 | 0.317 | 0.321 | 1.17 | 0.992 | 0.806 | 0.722 | 0.813 | 0.474 | 0.408 | 0.321 | 0.349 | 0.329 | 0.833 | 0.707 | 0.517 | 0.473 | 0.478 |
| NCI-H1975 | 0.425 | 0.419 | 0.37 | 0.317 | 0.317 | 0.49 | 0.283 | 0.311 | 0.214 | 0.2 | 0.853 | 0.695 | 0.682 | 0.386 | 0.374 | 0.89 | 0.9 | 0.688 | 0.623 | 0.616 |
| LK-2 | 0.375 | 0.266 | 0.276 | 0.265 | 0.139 |  |  |  |  |  | 0.158 | 0.173 | 0.189 | 0.157 | 0.162 | 0.769 | 0.357 | 0.256 | 0.17 | 0.104 |
